Reference: PMC10102067, “Synthesis of vancomycin fluorescent probes that retain antimicrobial activity, identify Gram-positive bacteria, and detect Gram-negative outer membrane damage” (Communications Biology, 2023)

Tests used:
E. coli = assay: microbe, parasite or virus in culture; details: 3 h
Method: Bacteria were obtained from the American Type Culture Collection (ATCC; Manassas, VA, USA), Merck Sharp & Dohme (Kenilworth, NJ), the Coli Genetic Stock Center (CGSC, Yale University), Network on Antimicrobial Resistance in Staphylococcus aureus (NARSA) via BEI Resources (www.beiresources.org) and independent academic clinical isolate and mutant collections. All species used in this study were described fully in Table S4. Bacteria were cultured in Cation-Adjusted Mueller-Hinton Broth (CAMHB, Bacto Laboratories, Cat No. 212322) or Muller Hinton Broth (MHB, Bacto Laboratories, Cat No. 211443) at 37 °C overnight. A sample of each culture was then diluted 50-fold in MHB and incubated at 37 °C for 1.5–3 h. The stock solutions of vancomycin probes 7, 8 and 9 were prepared at 1.28 mg/mL in sterile water. The compounds were serially diluted two-fold across the wells, with concentrations ranging from 0.06 µg/mL to 128 µg/mL, plated in duplicate. […]

S. aureus ATCC 25923 [1] = assay: Flow cytometry comparison with commercial fluorescent probes (Fig. S2A); assay type: cell-based; details: 2 and 16 µg/mL, 30 min 37 °C
Description: (§1) Figure S2. Comparison of probe 7 and probe 9 to commercial fluorescent probes using flow cytometry and microscopy. Labelling of S. aureus ATCC 25923 (A) and E. coli ATCC25922 (B) with vancomycin probe 7, probe 9, Van-FITC (SBR00028, Sigma-Aldrich), and Van-BODIPY (V34850, Invitrogen™) measured using flow […]
(§2) flow cytometer. The data are presented as the mean ± SEM (n = 3). GeoMean: Geometric Mean. (C) Airyscan confocal super-resolution imaging of vancomycin probe 7, probe 9, Van-FITC (SBR00028, Sigma-Aldrich), and Van-BODIPY (V34850, Invitrogen™) in S. aureus ATCC 25923. Bacteria were stained with probes (2 and 16 µg/mL, Green) for 30 min at 37 °C. Arrows indicate cells with Van-BODIPY entering cytoplasm. Scale bar = 1 µm.
(§3) (1 picture or pasted object on this page, not shown here)

E. coli ATCC25922 = assay: Flow cytometry comparison with commercial fluorescent probes (Fig. S2B); assay type: cell-based; details: 2 and 16 µg/mL, 30 min 37 °C
Description: as §1, §2, §3

S. aureus ATCC 25923 [2] = assay: Airyscan confocal super-resolution imaging, comparison of probes (Fig. S2C); assay type: cell-based; details: 2 and 16 µg/mL, 30 min 37 °C
Method: Figure S2. Comparison of probe 7 and probe 9 to commercial fluorescent probes using flow cytometry
and microscopy. […]
Van-BODIPY (V34850, Invitrogen™) in S. aureus ATCC 25923. Bacteria were stained with probes (2 and 16
µg/mL, Green) for 30 min at 37 °C. Arrows indicate cells with Van-BODIPY entering cytoplasm. Scale bar = 1 µm.

S. aureus = details: tested S. aureus strains (Table S3); dissolved in DMSO
Method: Bacteria were obtained from the American Type Culture Collection (ATCC; Manassas, VA, USA), Merck Sharp & Dohme (Kenilworth, NJ), the Coli Genetic Stock Center (CGSC, Yale University), Network on Antimicrobial Resistance in Staphylococcus aureus (NARSA) via BEI Resources (www.beiresources.org) and independent academic clinical isolate and mutant collections. All species used in this study were described fully in Table S4. Bacteria were cultured in Cation-Adjusted Mueller-Hinton Broth (CAMHB, Bacto Laboratories, Cat No. 212322) or Muller Hinton Broth (MHB, Bacto Laboratories, Cat No. 211443) at 37 °C overnight. A sample of each culture was then diluted 50-fold in MHB and incubated at 37 °C for 1.5–3 h. […] The compounds were serially diluted two-fold across the wells, with concentrations ranging from 0.06 µg/mL to 128 µg/mL, plated in duplicate. The resultant mid-log phase culture was diluted to 1 × 10^6 CFU/mL, then 50 µL was added to each well of the compound-containing 96-well plates (Corning, Cat. No 3641, non-binding surface (NBS) plates), giving a cell density of 5 × 10^5 CFU/mL, and a final compound concentration range of 0.03 µg/mL to 64 µg/mL.

Row | Structure (SMILES) | MIC (E. coli) [µg/mL] | staining of S. aureus (flow cytometry, in words) (S. aureus ATCC 25923 [1]) | staining of E. coli (flow cytometry, in words) (E. coli ATCC25922) | peptidoglycan labelling pattern (Airyscan imaging, in words) (S. aureus ATCC 25923 [2]) | antimicrobial activity at the highest concentration tested (S. aureus) [µg/mL]
1 | CN[C@H](CC(C)C)C(=O)N[C@H]1C(=O)N[C@@H](CC(N)=O)C(=O)N[C@H]2C(=O)N[C@H]3C(=O)N[C@H](C(=O)N[C@H](C(=O)O)c4cc(O)cc(O)c4-c4cc3ccc4O)[C@H](O)c3ccc(c(Cl)c3)Oc3cc2cc(c3O[C@@H]2O[C@H](CO)[C@@H](O)[C@H](O)[C@H]2O[C@H]2C[C@](C)(NC(=O)CCc3ccc4n3[B-](F)(F)[N+]3=C(C)C=C(C)C3=C4)[C@H](O)[C@H](C)O2)Oc2ccc(cc2Cl)[C@H]1O [Van-BODIPY] | > 64 | greatest intensity | stained a larger population of cells than the other probes | label the cells more uniformly | –
2 | CC(C)C[C@H](C(=O)N[C@H]1C(=O)N[C@@H](CC(N)=O)C(=O)N[C@H]2C(=O)N[C@H]3C(=O)N[C@H](C(=O)N[C@H](C(=O)O)c4cc(O)cc(O)c4-c4cc3ccc4O)[C@H](O)c3ccc(c(Cl)c3)Oc3cc2cc(c3O[C@@H]2O[C@H](CO)[C@@H](O)[C@H](O)[C@H]2O[C@H]2C[C@](C)(N)[C@H](O)[C@H](C)O2)Oc2ccc(cc2Cl)[C@H]1O)N(C)C(=S)Nc1ccc2c(c1)C(=O)OC21c2ccc(O)cc2Oc2cc(O)ccc21 [Van-FITC] | > 64 | the worst | did not show much staining | no fluorescence signal observed at 2 µg/mL | > 32
